Test results as given in ChEMBL document CHEMBL1133056, “Structure-activity relationships of halichondrin B analogues: modifications at C.30-C.38” (Bioorg Med Chem Lett, 2000).

Assays:
P388 [1] = experiment: The compound was tested for susceptibility to P-glycoprotein (PgP) mediated drug efflux using murine P388/VMDRC.04 cells under continuous exposure conditions for 3-4 days; type: functional, cell-based; details: Mus musculus
[2] = The compound was tested for its ability to maintain a irreversible mitotic block 10 hr after drug washout using flow cytometric analysis of U937 human histiocytic lymphoma cells; type: functional; details: U-937, 10 h
P388 [3] = experiment: Fold resistance was calculated as IC50 ratio between retrovirally transformed P388/VMDRC.04 and parental P388/S cells; type: functional, Mus musculus
DLD-1 = experiment: The compound was tested for cell growth inhibition against DLD-1 human colon cancer cells under continuous exposure conditions for 3-4 days; type: functional, cell-based
P388 [4] = experiment: The compound was tested for susceptibility to […] murine P388/S leukemia cells under continuous exposure conditions for 3-4 days; type: functional, cell-based; details: Mus musculus

| Compound | IC50 (P388 [1]) [nM] | IC99 [2] [µM] | FR (P388 [3]) | IC50 (DLD-1) [nM] | IC50 (P388 [4]) [nM] |
| --- | --- | --- | --- | --- | --- |
| C=C1C[C@@H]2CCC34C[C@@H]5O[C@@H]6[C@@H](O[C@H]7CC[C@H](CC(=O)O[C@@H]8[C@@H](C)[C@@H]9O[C@@H]%10C[C@]%11(C[C@@H]%12O[C@]%13(C[C@H](C)[C@@H]%14O[C@H]([C@@H](O)C[C@@H](O)CO)C[C@@H]%14O%13)C[C@H](C)[C@@H]%12O%11)O[C@@H]%10C[C@@H]9O[C@H]8C[C@H]8O[C@@H](CC[C@@H]1O2)C[C@@H](C)C8=C)O[C@@H]7[C@@H]6O3)[C@H]5O4 | 1.7 | 0.025 | 2.8 | 0.74 | 0.6 |
| C=C1C[C@@H]2CC[C@@]34C[C@@H]5O[C@@H]6[C@@H](O[C@H]7CC[C@H](CC(=O)O[C@@H]8[C@@H](C)[C@@H]9O[C@@H]%10CCO[C@@H]%10C[C@@H]9O[C@H]8C[C@H]8O[C@@H](CC[C@@H]1O2)C[C@@H](C)C8=C)O[C@@H]7[C@@H]6O3)[C@H]5O4 | 2.7 | > 1 | 2.1 | 2.6 | 1.3 |
| C=C1C[C@@H]2CC[C@@]34C[C@@H]5O[C@@H]6[C@@H](O[C@H]7CC[C@H](CC(=O)O[C@H]8C[C@@H]9O[C@H](CO)[C@@H](O)C[C@@H]9O[C@H]8C[C@H]8O[C@@H](CC[C@@H]1O2)C[C@@H](C)C8=C)O[C@@H]7[C@@H]6O3)[C@H]5O4 |  |  |  | 230 |  |
| C=C1C[C@@H]2CC[C@@]34C[C@@H]5O[C@@H]6[C@@H](O[C@H]7CC[C@H](CC(=O)O[C@@H]8[C@@H](C)[C@@H]9O[C@@H]%10CCOC%10(O)C[C@@H]9O[C@H]8C[C@H]8O[C@@H](CC[C@@H]1O2)C[C@@H](C)C8=C)O[C@@H]7[C@@H]6O3)[C@H]5O4 (some centres not stated) | 6.3 | 1 | 2 | 5.2 | 3.1 |
| C=C1C[C@@H]2CC[C@@]34C[C@@H]5O[C@@H]6[C@@H](O[C@H]7CC[C@H](CC(=O)O[C@@H]8[C@@H](C)[C@@H]9O[C@@H]%10CC(O)O[C@@H]%10C[C@@H]9O[C@H]8C[C@H]8O[C@@H](CC[C@@H]1O2)C[C@@H](C)C8=C)O[C@@H]7[C@@H]6O3)[C@H]5O4 (some centres not stated) | 3.8 | > 1 | 2.5 | 2.1 | 1.5 |
| C=C1C[C@@H]2CC[C@@]34C[C@@H]5O[C@@H]6[C@@H](O[C@H]7CC[C@H](CC(=O)O[C@@H]8[C@@H](C)[C@@H]9O[C@H](CCOC)[C@H](O)C[C@@H]9O[C@H]8C[C@H]8O[C@@H](CC[C@@H]1O2)C[C@@H](C)C8=C)O[C@@H]7[C@@H]6O3)[C@H]5O4 | 1.5 | > 0.65 | 2.7 | 1.2 | 0.55 |
| CC(=O)O[C@H]1C(=O)[C@@]2(C)[C@H]([C@H](OC(=O)c3ccccc3)[C@]3(O)C[C@H](OC(=O)[C@H](O)[C@@H](NC(=O)c4ccccc4)c4ccccc4)C(C)=C1C3(C)C)[C@]1(OC(C)=O)CO[C@@H]1C[C@@H]2O [PACLITAXEL] | 170 | 0.23 | 11 | 27 | 16 |
| C=C1C[C@@H]2CC[C@@]34C[C@@H]5O[C@@H]6[C@@H](O[C@H]7CC[C@H](CC(=O)O[C@@H]8[C@@H](C)[C@@H]9O[C@H](CO)[C@H](O)C[C@@H]9O[C@H]8C[C@H]8O[C@@H](CC[C@@H]1O2)C[C@@H](C)C8=C)O[C@@H]7[C@@H]6O3)[C@H]5O4 | 8.2 | 0.22 | 12 | 3.4 | 0.71 |
| C=C1C[C@@H]2CC[C@@]34C[C@@H]5O[C@@H]6[C@@H](O[C@H]7CC[C@H](CC(=O)O[C@@H]8C[C@@H]9O[C@H](CO)[C@@H](O)C[C@@H]9O[C@H]8C[C@H]8O[C@@H](CC[C@@H]1O2)C[C@@H](C)C8=C)O[C@@H]7[C@@H]6O3)[C@H]5O4 |  |  |  | 610 |  |
| C=C1C[C@@H]2CC[C@@]34C[C@@H]5O[C@@H]6[C@@H](O[C@H]7CC[C@H](CC(=O)O[C@@H]8[C@@H](C)[C@@H]9O[C@H](CCO)[C@H](O)C[C@@H]9O[C@H]8C[C@H]8O[C@@H](CC[C@@H]1O2)C[C@@H](C)C8=C)O[C@@H]7[C@@H]6O3)[C@H]5O4 | 8.8 | > 0.88 | 4 | 4.6 | 2.2 |
| C=C1C[C@@H]2CC[C@@]34C[C@@H]5O[C@@H]6[C@@H](O[C@H]7CC[C@H](CC(=O)O[C@@H]8[C@@H](C)[C@@H]9O[C@H](CCO)[C@@H](O)C[C@@H]9O[C@H]8C[C@H]8O[C@@H](CC[C@@H]1O2)C[C@@H](C)C8=C)O[C@@H]7[C@@H]6O3)[C@H]5O4 | 1.6 | > 1 | 9.4 | 3.6 | 1.7 |
| C=C1C[C@@H]2CC[C@@]34C[C@@H]5O[C@@H]6[C@@H](O[C@H]7CC[C@H](CC(=O)O[C@@H]8[C@@H](CC)[C@@H]9O[C@H](CO)[C@@H](O)C[C@@H]9O[C@H]8C[C@H]8O[C@@H](CC[C@@H]1O2)C[C@@H](C)C8=C)O[C@@H]7[C@@H]6O3)[C@H]5O4 | 16 | 1 | 10 | 6 | 1.6 |
